Measured values from the supplement of paper PMC5752671.

Tests used:
EOL-1 = experiment: area under dose-response curve (cell viability) (AUC (arbitrary, % viability x log concentration)); higher = less sensitive (more viable); conditions: 4 days
Outline: (§1)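 Drugs were dispensed robotically, one day after plating, onto fourteen leukemia cell lines in 384-well plates coated with extracellular matrix. Each drug was tested in duplicate at eight concentrations spanning 4–5 logs inside 10^–12–10^–4 M, adjusted per drug, and CellTiter-Glo readout followed after 4 days. Duplicates were averaged and a four-parameter sigmoid was fitted. The area under that fitted curve is the reported value.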

HL60 = experiment: as above; conditions: 4 days
Outline: as §1

KASUMI1 = experiment: as above; conditions: 4 days
Outline: as §1

KG1 = experiment: as above; conditions: 4 days
Outline: as §1

MOLM/13 = experiment: as above; conditions: 4 days
Outline: as §1

MOLM/16 = experiment: as above; conditions: 4 days
Outline: as §1

MV4.11 = experiment: as above; conditions: 4 days
Outline: as §1

NB4 = experiment: as above; conditions: 4 days
Outline: as §1

OCI-AML2 = experiment: as above; conditions: 4 days
Outline: as §1

OCI-AML3 = experiment: as above; conditions: 4 days
Outline: as §1

PL-21 = experiment: as above; conditions: 4 days
Outline: as §1

SKM1 = experiment: as above; conditions: 4 days
Outline: as §1

THP-1 = experiment: as above; conditions: 4 days
Outline: as §1

U937 = experiment: as above; conditions: 4 days
Outline: as §1

AML.030 = primary AML patient cells; experiment: area under dose-response curve (cell viability), primary AML patient cells (AUC (arbitrary, % viability x log concentration; ComBat batch-corrected)); higher = less sensitive (more viable); conditions: 4 days; sample type: primary AML patient cells
Outline: (§2)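 Before testing, primary AML cells were DNase-thawed, cultured 48 h in IMDM with horse serum, fetal calf serum and low stem cell factor, and enriched for blasts. On extracellular-matrix-coated 384-well plates at 5000 cells/well, they received drugs the next day at eight concentrations within 10^–12–10^–4 M, in duplicate, and CellTiter-Glo viability was recorded after 4 days. The endpoint was area under the fitted four-parameter curve, corrected for batch using ComBat.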

AML.083 = primary AML patient cells; experiment: as above; conditions: 4 days; sample type: primary AML patient cells
Outline: as §2

AML012 = primary AML patient cells; experiment: as above; conditions: 4 days; sample type: primary AML patient cells
Outline: as §2

AML062 = primary AML patient cells; experiment: as above; conditions: 4 days; sample type: primary AML patient cells
Outline: as §2

AML098 = primary AML patient cells; experiment: as above; conditions: 4 days; sample type: primary AML patient cells
Outline: as §2

AML099 = primary AML patient cells; experiment: as above; conditions: 4 days; sample type: primary AML patient cells
Outline: as §2

Structure (SMILES)	area under dose-response curve (EOL-1)	area under dose-response curve (HL60)	area under dose-response curve (KASUMI1)	area under dose-response curve (KG1)	area under dose-response curve (MOLM/13)	area under dose-response curve (MOLM/16)	area under dose-response curve (MV4.11)	area under dose-response curve (NB4)	area under dose-response curve (OCI-AML2)	area under dose-response curve (OCI-AML3)	area under dose-response curve (PL-21)	area under dose-response curve (SKM1)	area under dose-response curve (THP-1)	area under dose-response curve (U937)	area under dose-response curve (AML.030)	area under dose-response curve (AML.083)	area under dose-response curve (AML012)	area under dose-response curve (AML062)	area under dose-response curve (AML098)	area under dose-response curve (AML099)
CC(=O)Nc1cccc(-n2c(=O)n(C3CC3)c(=O)c3c(Nc4ccc(I)cc4F)n(C)c(=O)c(C)c32)c1	250	287	371	431	571	450	468	407	196	218	350	253	497	578	524	419	≤ 364	502	560	547
CN(C)CCCn1cc(C2=C(c3c[nH]c4ccccc34)C(=O)NC2=O)c2ccccc21	479	710	647	608	534	543	500	648	582	663	591	601	701	694	776	816	≥ 842	718	713	762
CN1CCC(COc2cnc(-c3cccc(Cn4nc(-c5cccc(C#N)c5)ccc4=O)c3)nc2)CC1	625	729	715	668	645	670	688	627	650	696	635	696	719	700	769	757	879	898	881	782
COc1cc(OC)c(/C=C/S(=O)(=O)Cc2ccc(OC)c(NCC(=O)O)c2)c(OC)c1	354	473	474	403	387	314	363	404	344	337	349	425	403	330	700	614	705	≥ 752	725	732
C[C@@]1(C(=O)Nc2ccc(F)nc2)CCCN1c1nc(Nc2cc(C3CC3)n[nH]2)c2cccn2n1	413	373	405	510	565	404	570	435	476	587	372	464	591	552	750	709	≥ 752	691	684	693
Cc1ccc(C(=O)Nc2ccc(CN3CCN(C)CC3)c(C(F)(F)F)c2)cc1C#Cc1cnc2cccnn12	149	593	433	363	266	462	224	458	525	539	499	574	583	527	≥ 671	590	643	496	529	580
Cc1ccccc1-n1c(Cn2cnc3c(N)ncnc32)nc2cccc(C)c2c1=O	598	719	665	718	659	644	650	667	633	664	614	637	679	641	755	735	766	701	721	692
N#CC[C@H](C1CCCC1)n1cc(-c2ncnc3[nH]ccc23)cn1	636	697	681	631	652	595	649	656	626	669	609	681	684	573	721	690	664	759	729	683
NC(=O)[C@@H](CCC(F)(F)F)N(Cc1ccc(-c2ncon2)cc1F)S(=O)(=O)c1ccc(Cl)cc1	642	692	634	616	693	647	711	675	652	682	655	672	690	693	750	760	788	767	818	760
CN(C)CC[C@H](CSc1ccccc1)Nc1ccc(S(=O)(=O)NC(=O)c2ccc(N3CCN(Cc4ccccc4-c4ccc(Cl)cc4)CC3)cc2)cc1[N+](=O)[O-] [ABT-737]	333	457	403	497	395	467	342	503	400	543	514	524	538	546	668	614	660	422	465	656
C[C@]1(c2nc3c(C(N)=O)cccc3[nH]2)CCCN1 [ABT-888]	650	668	663	684	638	616	654	606	620	629	619	629	690	674	760	721	769	721	726	783
CC(C)(C)c1cc(NC(=O)Nc2ccc(-c3cn4c(n3)sc3cc(OCCN5CCOCC5)ccc34)cc2)no1 [AC-220]	135	550	408	650	200	604	154	576	542	536	528	629	566	530	≥ 728	605	722	485	534	568
O=C1NC(=O)[C@@H](c2cn3c4c(cccc24)CCC3)[C@@H]1c1c[nH]c2ccccc12 [ARQ-197]	465	524	523	505	468	390	507	409	489	468	478	510	478	397	748	680	682	685	746	699
CCN(CC)CCCC(C)Nc1c2ccc(Cl)cc2nc2ccc(OC)cc12 (stereo not given) [Acrichine]	545	673	639	641	598	625	615	607	559	611	570	617	661	636	822	751	742	789	776	779
Nc1cc(C(F)(F)F)c(-c2cc(N3CCOCC3)nc(N3CCOCC3)n2)cn1 [BKM-120]	486	613	602	566	576	473	599	558	558	538	523	539	602	510	720	680	681	627	638	662
NC(=O)c1ccc2nc(-c3ccc(Oc4ccc(Cl)cc4)cc3)[nH]c2c1 [BML 277]	621	739	735	683	682	628	715	652	724	692	628	672	714	655	789	804	≥ 869	727	821	798
NC(=O)c1ccc(I)c([N+](=O)[O-])c1 [BSI-201]	622	717	722	655	689	661	683	642	664	697	624	664	681	676	755	755	770	709	784	704
CC(C)C[C@H](NC(=O)[C@H](Cc1ccccc1)NC(=O)c1cnccn1)B(O)O [Bortezomib]	283	334	338	330	304	321	338	286	330	308	307	268	340	298	336	326	≥ 390	354	382	313
CS(=O)(=O)OCCCCOS(C)(=O)=O [Busulfan]	631	653	651	667	633	651	641	617	639	666	621	666	636	650	713	686	692	686	737	696
